Experimental data published in patent US20070049564A1 (Wyeth, priority 2005, published 2007).
Converted amounts (≈) assume the structure as drawn. Like-named read-outs stand apart in the source and are kept apart here.

Tests used:
S. pneumoniae+ GC 4465 = assay: MIC, broth microdilution; settings: Streptococcus pneumoniae, S. pneumoniae+ GC 4465
S. typhimurium GC 2172 = assay: MIC, broth microdilution; settings: Salmonella enterica, TYPHIMURIUM, S. typhimurium GC 2172
Procedure: (§1) Antimicrobial susceptibility testing. The in vitro activities of the antibiotics are determined by the broth microdilution method as recommended by the National Committee for Clinical Laboratory Standards (NCCLS) (1). Mueller-Hinton II broth (MHBII)(BBL Cockeysville, Md.) is the medium employed in the testing procedures. Microtiter plates containing serial dilutions of each antimicrobial agent are inoculated with each organism to yield the appropriate density (10^5 CFU/ml) in a 100 μl final volume. The plates are incubated for 18-22 hours at 35° C. in ambient air.
(§2) Representative compounds were first incubated in mouse serum for an hour prior to the in vitro testing against a panel of selected gram-positive and gram-negative bacteria strains. All compounds were also pre-incubated in water for an hour prior to testing as control.

E. coli GC 2272 = assay: MIC, broth microdilution; settings: Escherichia coli, GC2272, E. coli GC 2272
S. epidermidis GC 4935 = assay: MIC, broth microdilution; settings: Staphylococcus epidermidis, GC4935, S. epidermidis GC 4935
S. aureus GC 1079 = assay: MIC, broth microdilution; settings: Staphylococcus aureus, GC1079, S. aureus GC 1079
E. faecalis GC 2267 = assay: MIC, broth microdilution; settings: Enterococcus faecalis, GC2267, E. faecalis GC 2267
Procedure: as §1, §2

E. coli GC 2232 = assay: MIC, broth microdilution; settings: Escherichia coli, GC2232, E. coli GC 2232
S. aureus GC 1131 = assay: MIC, broth microdilution; settings: Staphylococcus aureus, GC1131, S. aureus GC 1131
S. pneumoniae* GC 4465 = assay: MIC, broth microdilution; settings: Streptococcus pneumoniae, S. pneumoniae* GC 4465
E. faecium GC 2243 = assay: MIC, broth microdilution; settings: Enterococcus faecium, GC2243, E. faecium GC 2243
S. aureus GC 6466 = assay: MIC, broth microdilution; settings: Staphylococcus aureus, GC6466, S. aureus GC 6466
S. aureus GC 2216 = assay: MIC, broth microdilution; settings: Staphylococcus aureus, GC2216, S. aureus GC 2216
E. faecium GC 4556 = assay: MIC, broth microdilution; settings: Enterococcus faecium, GC4556, E. faecium GC 4556
Staph. aureus Smith = assay: In vivo activity (oral, iv; ED50) against Staph. aureus Smith in mice
Procedure: Representative examples of compounds of Formula I were tested for the oral efficacy using S. aureus Smith in mice.

E. coli GC 2234 = assay: MIC, broth microdilution; settings: Escherichia coli, GC2234, E. coli GC 2234
E. coli GC 3226 = assay: MIC, broth microdilution; settings: Escherichia coli, GC3226, E. coli GC 3226
E. coli GC 2231 = assay: MIC, broth microdilution; settings: Escherichia coli, GC2231, E. coli GC 2231
S. pyogenes GC 4563 = assay: MIC, broth microdilution; settings: Streptococcus pyogenes, GC4563, S. pyogenes GC 4563
c. albicans GC 3066 = assay: MIC, broth microdilution
S. aureus GC 6335 = assay: MIC, broth microdilution; settings: Staphylococcus aureus, GC6335, S. aureus GC 6335
[1] = Staphylococcus aureus, in Mus musculus, po, read-out: ED50 Staph Smith SOD
[2] = iv, read-out: ED50 Staph Smith SIV
[3] = c. albicans GC 3066, Water pre-incubation

Compound	MIC (S. pneumoniae+ GC 4465; Mouse Serum pre-incubation)	MIC (S. pneumoniae+ GC 4465; Water pre-incubation)	MIC (S. typhimurium GC 2172; Mouse Serum pre-incubation)	MIC (S. typhimurium GC 2172; Water pre-incubation)	MIC (E. coli GC 2272; Mouse Serum pre-incubation)	MIC (E. coli GC 2272; Water pre-incubation)	MIC (S. epidermidis GC 4935; Mouse Serum pre-incubation)	MIC (S. epidermidis GC 4935; Water pre-incubation)	MIC (S. aureus GC 1079; Mouse Serum pre-incubation)	MIC (S. aureus GC 1079; Water pre-incubation)	MIC (E. faecalis GC 2267; Mouse Serum pre-incubation)	MIC (E. faecalis GC 2267; Water pre-incubation)	MIC (E. coli GC 2232; Mouse Serum pre-incubation)	MIC (E. coli GC 2232; Water pre-incubation)	MIC (S. aureus GC 1131; Mouse Serum pre-incubation)	MIC (S. aureus GC 1131; Water pre-incubation)	MIC (S. pneumoniae* GC 4465; Mouse Serum pre-incubation)	MIC (S. pneumoniae* GC 4465; Water pre-incubation)	MIC (E. faecium GC 2243; Mouse Serum pre-incubation)	MIC (E. faecium GC 2243; Water pre-incubation)	further results
CCCN(CC(=O)Nc1cc(N(C)C)c2c(c1O)C(=O)C1=C(O)[C@]3(O)C(=O)C(C(N)=O)=C(O)[C@@H](N(C)C)[C@@H]3C[C@@H]1C2)C(=O)OCOC(=O)C1CCC1 [Example 7, ({[(2-{[(5aR,6aS,7S,10aS)-9-(aminocarbonyl)-4,7-bis(dimethylamino)-1,8,10a,11-tetrahydroxy-10,12-dioxo-5,5a,6,6a,7,10,10a,12-octahydrotetracen-2-yl]amino}-2-oxoethyl)(propyl)amino]carbonyl}oxy)methyl cyclobutanecarboxylate]	4 µg/mL (≈ 5.5 µM)	2 µg/mL (≈ 2.75 µM)	4 µg/mL (≈ 5.5 µM)	> 64 µg/mL	0.5 µg/mL (≈ 0.687 µM)	4 µg/mL (≈ 5.5 µM)	2 µg/mL (≈ 2.75 µM)	2 µg/mL (≈ 2.75 µM)	1 µg/mL (≈ 1.37 µM)	4 µg/mL (≈ 5.5 µM)	1 µg/mL (≈ 1.37 µM)	2 µg/mL (≈ 2.75 µM)	0.5 µg/mL (≈ 0.687 µM)	4 µg/mL (≈ 5.5 µM)	1 µg/mL (≈ 1.37 µM)	1 µg/mL (≈ 1.37 µM)	0.25 µg/mL (≈ 0.344 µM)	0.12 µg/mL (≈ 0.165 µM)	0.25 µg/mL (≈ 0.344 µM)	0.12 µg/mL (≈ 0.165 µM)	MIC (S. aureus GC 6466; Mouse Serum pre-incubation): 0.5 µg/mL (≈ 0.687 µM); MIC (S. aureus GC 6466; Water pre-incubation): 0.5 µg/mL (≈ 0.687 µM); MIC (S. aureus GC 2216; Mouse Serum pre-incubation): 0.5 µg/mL (≈ 0.687 µM); MIC (S. aureus GC 2216; Water pre-incubation): 0.5 µg/mL (≈ 0.687 µM); MIC (E. faecium GC 4556; Mouse Serum pre-incubation): 0.5 µg/mL (≈ 0.687 µM); MIC (E. faecium GC 4556; Water pre-incubation): 1 µg/mL (≈ 1.37 µM); ED50 (Staph. aureus Smith; [1]): 16.1 mg/kg; ED50 (Staph. aureus Smith; [2]): 0.52 mg/kg; MIC (E. coli GC 2234; Mouse Serum pre-incubation): 1 µg/mL (≈ 1.37 µM); MIC (E. coli GC 2234; Water pre-incubation): 4 µg/mL (≈ 5.5 µM); MIC (E. coli GC 3226; Mouse Serum pre-incubation): 0.5 µg/mL (≈ 0.687 µM); MIC (E. coli GC 3226; Water pre-incubation): 8 µg/mL (≈ 11 µM); MIC (E. coli GC 2231; Mouse Serum pre-incubation): 2 µg/mL (≈ 2.75 µM); MIC (E. coli GC 2231; Water pre-incubation): 16 µg/mL (≈ 22 µM); MIC (S. pyogenes GC 4563; Mouse Serum pre-incubation): 0.25 µg/mL (≈ 0.344 µM); MIC (S. pyogenes GC 4563; Water pre-incubation): 0.25 µg/mL (≈ 0.344 µM); MIC (c. albicans GC 3066; Candida albicans, GC3066): > 64 µg/mL; MIC (c. albicans GC 3066; [3]): >64 UG/ML; MIC (S. aureus GC 6335; Mouse Serum pre-incubation): 1 µg/mL (≈ 1.37 µM); MIC (S. aureus GC 6335; Water pre-incubation): 1 µg/mL (≈ 1.37 µM)
CCCN(CC(=O)Nc1cc(N(C)C)c2c(c1O)C(=O)C1=C(O)[C@]3(O)C(=O)C(C(N)=O)=C(O)[C@@H](N(C)C)[C@@H]3C[C@@H]1C2)C(=O)OCOC(=O)c1ccc(F)cc1 [Example 8, ({[(2-{[(5aR,6aS,7S,10aS)-9-(aminocarbonyl)-4,7-bis(dimethylamino)-1,8,10a,11-tetrahydroxy-10,12-dioxo-5,5a,6,6a,7,10,10a,12-octahydrotetracen-2-yl]amino}-2-oxoethyl)(propyl)amino]carbonyl}oxy)methyl 4-fluorobenzoate]	1 µg/mL (≈ 1.3 µM)	4 µg/mL (≈ 5.21 µM)	8 µg/mL (≈ 10.4 µM)	> 64 µg/mL	1 µg/mL (≈ 1.3 µM)	32 µg/mL (≈ 41.7 µM)	2 µg/mL (≈ 2.6 µM)	8 µg/mL (≈ 10.4 µM)	2 µg/mL (≈ 2.6 µM)	4 µg/mL (≈ 5.21 µM)	2 µg/mL (≈ 2.6 µM)	8 µg/mL (≈ 10.4 µM)	1 µg/mL (≈ 1.3 µM)	32 µg/mL (≈ 41.7 µM)	1 µg/mL (≈ 1.3 µM)	2 µg/mL (≈ 2.6 µM)	< 0.06 µg/mL	0.25 µg/mL (≈ 0.326 µM)	0.25 µg/mL (≈ 0.326 µM)	2 µg/mL (≈ 2.6 µM)	MIC (S. aureus GC 6466; Mouse Serum pre-incubation): 0.5 µg/mL (≈ 0.651 µM); MIC (S. aureus GC 6466; Water pre-incubation): 1 µg/mL (≈ 1.3 µM); MIC (S. aureus GC 2216; Mouse Serum pre-incubation): 0.5 µg/mL (≈ 0.651 µM); MIC (S. aureus GC 2216; Water pre-incubation): 4 µg/mL (≈ 5.21 µM); MIC (E. faecium GC 4556; Mouse Serum pre-incubation): 1 µg/mL (≈ 1.3 µM); MIC (E. faecium GC 4556; Water pre-incubation): 4 µg/mL (≈ 5.21 µM); ED50 (Staph. aureus Smith; [1]): 16.6 mg/kg; ED50 (Staph. aureus Smith; [2]): 0.48 mg/kg; MIC (E. coli GC 2234; Mouse Serum pre-incubation): 1 µg/mL (≈ 1.3 µM); MIC (E. coli GC 2234; Water pre-incubation): 32 µg/mL (≈ 41.7 µM); MIC (E. coli GC 3226; Mouse Serum pre-incubation): 2 µg/mL (≈ 2.6 µM); MIC (E. coli GC 3226; Water pre-incubation): 64 µg/mL (≈ 83.4 µM); MIC (E. coli GC 2231; Mouse Serum pre-incubation): 2 µg/mL (≈ 2.6 µM); MIC (E. coli GC 2231; Water pre-incubation): > 64 µg/mL; MIC (S. pyogenes GC 4563; Mouse Serum pre-incubation): 0.12 µg/mL (≈ 0.156 µM); MIC (S. pyogenes GC 4563; Water pre-incubation): 0.5 µg/mL (≈ 0.651 µM); MIC (c. albicans GC 3066; Candida albicans, GC3066): > 64 µg/mL; MIC (c. albicans GC 3066; [3]): >64 UG/ML; MIC (S. aureus GC 6335; Mouse Serum pre-incubation): 1 µg/mL (≈ 1.3 µM); MIC (S. aureus GC 6335; Water pre-incubation): 4 µg/mL (≈ 5.21 µM)
